Measurements taken from patent US7067515B2, “Quinuclidines-substituted-multi-cyclic-heteroaryls for the treatment of disease” (Pfizer Inc., priority 2001, dated 2006).
Structures can show the parent of a compound that is named as a salt.

target: T1, α7 nAChR (Rattus norvegicus, UniProt Q05941); test: [3H]-MLA competition binding assay in rat brain membranes; settings: not given
T1 construct: brains (whole brain minus cerebellum) are dissected quickly, weighed and homogenized; from tissue; host or cells: rat brain (whole brain minus cerebellum) membrane homogenate
Method: Materials and Methods for Identifying Binding Constants:
Membrane Preparation. Male Sprague-Dawley rats (300–350 g) are sacrificed by decapitation and the brains (whole brain minus cerebellum) are dissected quickly, weighed and homogenized in 9 volumes/g wet weight of ice-cold 0.32M sucrose using a rotating pestle on setting 50 (10 up and down strokes). The homogenate is centrifuged at 1,000×g for 10 minutes at 4° C. The supernatant is collected and centrifuged at 20,000×g for 20 minutes at 4° C. The resulting pellet is resuspended to a protein concentration of 1–8 mg/mL. Aliquots of 5 mL homogenate are frozen at −80° C. until needed for the assay. On the day of the assay, aliquots are thawed at room temperature and diluted with Kreb's—20 mM Hepes buffer pH 7.0 (at room temperature) containing 4.16 mM NaHCO3, 0.44 mM KH2PO4, 127 mM NaCl, 5.36 mM KCl, 1.26 mM CaCl2, and 0.98 mM MgCl2, so that 25–150 μg protein are added per test tube. Proteins are determined by the Bradford method (Bradford, M. M., Anal. Biochem., 72, 248–254, 1976) using bovine serum albumin as the standard.
Binding Assay. For saturation studies, 0.4 mL homogenate are added to test tubes containing buffer and various concentrations of radioligand, and are incubated in a final volume of 0.5 mL for 1 hour at 25° C. Nonspecific binding was determined in tissues incubated in parallel in the presence of 1 μM MLA, added before the radioligand. In competition studies, drugs are added in increasing concentrations to the test tubes before addition of approximately 3.0 to 4.0 nM [^3H]-MLA. The incubations are terminated by rapid vacuum filtration through Whatman GF/B glass filter paper mounted on a 48 well Brandel cell harvester. Filters are pre-soaked in 50 mM Tris HCl pH 7.0–0.05% polyethylenimine. The filters are rapidly washed two times with 5 mL aliquots of cold 0.9% saline and then counted for radioactivity by liquid scintillation spectrometry.
Data Analysis. In competition binding studies, the inhibition constant (Ki) was calculated from the concentration dependent inhibition of [^3H]-MLA binding obtained from non-linear regression fitting program according to the Cheng-Prusoff equation (Cheng, Y. C. and Prussoff, W. H., Biochem. Pharmacol., 22, p. 3099–3108, 1973). Hill coefficients were obtained using non-linear regression (GraphPad Prism sigmoidal dose-response with variable slope).

T1 sequence (Q05941 23-502): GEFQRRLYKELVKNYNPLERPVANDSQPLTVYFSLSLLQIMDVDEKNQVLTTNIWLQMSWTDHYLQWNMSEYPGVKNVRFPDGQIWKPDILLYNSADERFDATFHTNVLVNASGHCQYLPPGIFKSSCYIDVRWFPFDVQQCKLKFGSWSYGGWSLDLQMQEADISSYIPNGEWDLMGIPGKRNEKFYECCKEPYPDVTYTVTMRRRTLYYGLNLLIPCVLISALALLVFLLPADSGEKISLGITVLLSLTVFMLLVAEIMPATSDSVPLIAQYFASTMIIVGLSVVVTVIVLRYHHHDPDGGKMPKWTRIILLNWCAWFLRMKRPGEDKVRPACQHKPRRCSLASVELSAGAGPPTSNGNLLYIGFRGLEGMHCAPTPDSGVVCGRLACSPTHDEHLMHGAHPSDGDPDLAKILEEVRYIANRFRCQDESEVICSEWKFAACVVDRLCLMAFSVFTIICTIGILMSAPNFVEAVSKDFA

Row | SMILES | Ki [nM]
1 | O=C(N[C@H]1CN2CCC1CC2)c1cc2c(cn1)OCC2 [Example 1, N-[(3R)-1-azabicyclo[2.2.2]oct-3-yl]-2,3-dihydrofuro[2,3-c]pyridine-5-carboxamide dihydrochloride] | 50 to 60
2 | Cc1cc2cc(C(=O)N[C@H]3CN4CCC3CC4)ncc2o1 [Example 6, N-[(3R)-1-azabicyclo[2.2.2]oct-3-yl]-2-methylfuro[2,3-c]pyridine-5-carboxamide dihydrochloride] | 119
3 | Cc1coc2cnc(C(=O)N[C@H]3CN4CCC3CC4)cc12 [Example 9, N-[(3R)-1-azabicyclo[2.2.2]oct-3-yl]-3-methylfuro[2,3-c]pyridine-5-carboxamide] | 1 to 6
4 | O=C(N[C@H]1CN2CCC1CC2)c1cc2cccnc2s1 [Example 13, N-((3R)-1-azabicyclo[2.2.2]oct-3-yl)thieno[2,3-b]pyridine-2-carboxamide dihydrochloride] | 108
5 | O=C(N[C@H]1CN2CCC1CC2)c1cc2ccncc2s1 [Example 17, N-[(3R)-1-azabicyclo[2.2.2]oct-3-yl]thieno[2,3-c]pyridine-2-carboxamide dihydrochloride] | 65
6 | O=C(N[C@H]1CN2CCC1CC2)c1ccc2sccc2n1 [Example 19, N-[(3R)-1-azabicyclo[2.2.2]oct-3-yl]thieno[3,2-b]pyridine-5-carboxamide dihydrochloride] | 274
7 | O=C(N[C@H]1CN2CCC1CC2)c1cnc2ccsc2c1 [Example 20, N-[(3R)-1-azabicyclo[2.2.2]oct-3-yl]thieno[3,2-b]pyridine-6-carboxamide dihydrochloride] | 952
8 | O=C(N[C@H]1CN2CCC1CC2)c1cc2ccsc2cn1 [Example 22, N-[(3R)-1-azabicyclo[2.2.2]oct-3-yl]thieno[2,3-c]pyridine-5-carboxamide dihydrochloride] | 5
9 | O=C(N[C@H]1CN2CCC1CC2)c1cc2c(Cl)coc2cn1 [Example 28, N-[(3R)-1-Azabicyclo[2.2.2]oct-3-yl]-3-chlorofuro[2,3-c]pyridine-5-carboxamide dihydrochloride] | 3
10 | O=C(N[C@H]1CN2CCC1CC2)c1cc2c(Br)coc2cn1 [Example 29, N-[(3R)-1-Azabicyclo[2.2.2]oct-3-yl]-3-bromofuro[2,3-c]pyridine-5-carboxamide] | 4
11 | O=C(N[C@H]1CN2CCC1CC2)c1cc2occc2cn1 [Example 30, N-[(3R)-1-Azabicyclo[2.2.2]oct-3-yl]furo[3,2-c]pyridine-6-carboxamide dihydrochloride] | 45
12 | O=C(N[C@H]1CN2CCC1CC2)c1cc2c(Br)csc2cn1 [Example 31, N-[(3R)-1-azabicyclo[2.2.2]oct-3-yl]-3-bromothieno[2,3-c]pyridine-5-carboxamide] | 9
13 | C[C@H]1[C@H](NC(=O)c2cc3ccoc3cn2)C2CCN1CC2 [Example 33, N-[(2S,3R)-2-methyl-1-azabicyclo[2.2.2]oct-3-yl]furo[2,3-c]pyridine-5-carboxamide dihydrochloride] | 15
14 | Cc1coc2cnc(C(=O)N[C@@H]3C4CCN(CC4)[C@H]3C)cc12 [Example 34, 3-methyl-N-[(2S,3R)-2-methyl-1-azabicyclo[2.2.2]oct-3-yl]furo[2,3-c]pyridine-5-carboxamide dihydrochloride] | 15
15 | C[C@H]1[C@H](NC(=O)c2cc3ccsc3cn2)C2CCN1CC2 [Example 35, N-[(2S,3R)-2-methyl-1-azabicyclo[2.2.2]oct-3-yl]thieno[2,3-c]pyridine-5-carboxamide dihydrochloride] | 18
16 | C[C@H]1[C@H](NC(=O)c2cc3sccc3cn2)C2CCN1CC2 [Example 36, N-[(2S,3R)-2-methyl-1-azabicyclo[2.2.2]oct-3-yl]thieno[3,2-c]pyridine-6-carboxamide dihydrochloride] | 12
17 | O=C(N[C@H]1CN2CCC1CC2)c1cc2cscc2cn1 [Example 40, N-[(3R)-1-azabicyclo[2.2.2]oct-3-yl]thieno[3,4-c]pyridine-6-carboxamide methanesulfonate] | 25

same assay, conditions: competition with approximately 3.0 to 4.0 nM [3H]-MLA, rat brain (whole brain minus cerebellum) homogenate, 1 hour at 25° C, Cheng-Prusoff; read-out: Ki Value

Row | SMILES | Ki [nM]
18 | O=C(N[C@H]1CN2CCC1CC2)c1cc2cnccc2o1 [Example 2, N-[(3R)-1-azabicyclo[2.2.2]oct-3-yl]furo[3,2-c]pyridine-2-carboxamide] | 1300
19 | O=C(N[C@H]1CN2CCC1CC2)c1cc2ccoc2c(Cl)n1 [Example 3, N-[(3R)-1-azabicyclo[2.2.2]oct-3-yl]-7-chlorofuro[2,3-c]pyridine-5-carboxamide hydrochloride] | 2250
20 | O=C(N[C@H]1CN2CCC1CC2)c1cc2ccoc2cn1 [Example 4, N-[(3R)-1-azabicyclo[2.2.2]oct-3-yl]furo[2,3-c]pyridine-5-carboxamide dihydrochloride] | 9 to 10
21 | O=C(N[C@H]1CN2CCC1CC2)c1cc2cnccc2s1 [Example 21, N-[(3R)-1-azabicyclo[2.2.2]oct-3-yl]thieno[3,2-c]pyridine-2-carboxamide dihydrochloride] | 269
22 | O=C(N[C@H]1CN2CCC1CC2)c1cc2sccc2cn1 [Example 23, N-[(3R)-1-azabicyclo[2.2.2]oct-3-yl]thieno[3,2-c]pyridine-6-carboxamide dihydrochloride] | 5
